The target in one assay is T1, PI3Kα kinase (Homo sapiens, UniProt P42336).
T1 construct: purchased Millipore, USA
The assay is described as follows: PI3Kα assay (32P incorporation into phosphatidylinositol, TLC densitometry). The note with it: for inhibition at 0.1 µM: At 100 nM; for inhibition at 1 µM: At 1000 nM. Format: biochemical. An outline of the steps: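 Human PI3Kα (20 ng) with 12.5 μg phosphatidylinositol, 10 μM ATP plus [γ-32P]ATP in 10 mM Hepes pH 7.5, 50 mM MgCl2; 20 min at 30° C. Lipids extracted in MeOH/chloroform, resolved by silica TLC, and 32P-labelled PI quantified by autoradiography densitometry.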

For the next assay, the system named is PANC 1. The assay is described as follows: Cytotoxicity, propidium iodide assay, PANC 1. In kind it is cell-based. The note with it: Homo sapiens; Pancreatic, PANC 1, 48 hours treatment; read-out: IC50, C5a (PANC 1). Here is the method:
The assay was designed as in the reference, Anticancer Drugs, 2002, 13, 1-8, the disclosure of which is incorporated by reference for the teaching of the assay.
Cells from cell lines as mentioned in the table given below were seeded at a density of 3000 cells/well in a white opaque 96-well plate. Following incubation at 37° C./5% CO2 for a period of 18-24 hours, the cells were treated with various concentrations (stock solution was prepared in DMSO and subsequent dilutions were made in media as per ATCC guidelines) of the compounds of Example 1-40 was for a period of 48 hours. At the end of treatment, the spent culture medium was discarded, the cells were washed with 1×PBS and 200 μl of 7 μg/ml propidium iodide was added to each well. The plates were frozen at −70° C. for at least 24 hours. For analysis, the plates were brought to RT, allowed to thaw and were read in PoleStar fluorimeter with the fluorescence setting. The percentage of viable cells in the non-treated set of wells was considered to be 100 and the percentage viability following treatment was calculated accordingly. IC50 values were calculated from graphs plotted using these percentages. Table 4 depicts the IC50 values of compounds of Example 1-40 in individual cell lines.
The abbreviations for the Cell Lines as used in Table 4 are: […]

A further assay relates to OVCAR 3. The experiment in a line: Cytotoxicity, propidium iodide assay, OVCAR 3. Format: cell-based. To be noted: Homo sapiens; Ovarian, OVCAR 3, 48 hours treatment; read-out: IC50, C3b (OVCAR 3). In outline: (§1)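 Cells seeded at 3000 cells/well, incubated 18-24 hours at 37° C./5% CO2, then exposed to a range of compound concentrations for 48 hours. After a PBS wash, 7 μg/ml propidium iodide was added, plates frozen at −70° C. for at least 24 hours, thawed and read by fluorescence; IC50 from viability relative to untreated wells.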

Another assay relates to A2780. The assay is described as follows: Cytotoxicity, propidium iodide assay, A2780. In kind it is cell-based. The note with it: Homo sapiens; Ovarian, A2780, 48 hours treatment; read-out: IC50, C3a (A2780). In outline: as §1
The subject of the next assay is A549. The experiment in a line: Cytotoxicity, propidium iodide assay, A549. Format: cell-based. The note with it: Homo sapiens; Lung, A549, 48 hours treatment; read-out: IC50, C1a (A549). An outline of the steps: as §1
The subject of a further assay is IL-6. The assay is described as follows: Human monocyte assay, LPS-stimulated IL-6 (ELISA). In kind it is cell-based. The note with it: human monocytes, 1 μg/ml LPS, 5 hours. In outline:
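IL-6 and TNF-α in supernatants were quantified by ELISA after 5 h of 1 μg/ml LPS (E. coli 0111:B4) challenge at 37 °C, following a 30 min compound pretreatment (vehicle 0.5% DMSO). Cells were adherent human blood monocytes, 2×10^4 per well, cultured 48 h beforehand. Nonlinear regression gave IC50; a parallel MTS plate checked toxicity.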
(In general: ELISA stands for enzyme-linked immunosorbent assay.)

For a further assay, the system named is PC3. The assay is described as follows: Cytotoxicity, propidium iodide assay, PC3. The note with it: Homo sapiens, PC-3; Prostate, PC3, 48 hours treatment; read-out: IC50, C2a (PC3). Format: cell-based. An outline of the steps: as §1
In another assay the test system is H460. The assay is described as follows: Cytotoxicity, propidium iodide assay, H460. The note with it: Homo sapiens, NCI-H460; Lung, H460, 48 hours treatment; read-out: IC50, C1b (H460). Format: cell-based. An outline of the steps:
as §1

The subject of the next assay is TNF-α. The assay is described as follows: Human monocyte assay, LPS-stimulated TNF-α (ELISA). In kind it is cell-based. To be noted: human monocytes, 1 μg/ml LPS, 5 hours, read-out: TNFα (IC50). On the procedure:
The assay was designed as in the reference, Physiol. Res., 2003, 52, 593-598, the disclosure of which is incorporated by reference for the teaching of the assay.
Peripheral blood mononuclear cells (hPBMC) were harvested from human blood and suspended in RPMI 1640 culture medium containing 10% FCS, 100 U/mL penicillin and […] streptomycin (assay medium). Monocytes in the hPBMCs were counted using a Coulter Counter following which the cells were resuspended at 2×10^5 monocytes/mL. A cell suspension containing 2×10^4 monocytes was aliquoted per well of a 96-well plate. Subsequently, the hPBMCs were incubated for 4-5 hours at 37° C. under 5% CO2 (During the incubation, the monocytes adhered to the bottom of 96-well plastic culture plate). Following the incubation, the non-adherent lymphocytes were washed with assay medium and the adherent monocytes re-fed with assay medium. After a 48-hour incubation period (37° C., 5% CO2), monocytes were pretreated with various concentrations of compounds of Example 1-40 (prepared in DMSO) or vehicle (0.5% DMSO) for 30 minutes and stimulated with 1 μg/ml LPS (Escherchia coli 0111:B4, Sigma Chemical Co., St. Louis, Mo.). The incubation was continued for 5 hours at 37° C., 5% CO2. Supernatants were harvested, assayed for IL-6 and TNF-α by ELISA as described by the manufacturer (BD Biosciences, USA). Dexamethasone (10 μM) was used as standard for this assay. The 50% inhibitory concentration (IC50) values were calculated by a nonlinear regression method. In all experiments, a parallel plate was run to ascertain the toxicity of compounds of Example 1-40. The toxicity was determined using the MTS assay as described in Am. J. Physiol. Cell Physiol., 2003, 285, C813-C822.

A value given as a limit tells only on which side of the number the result lay.

T1 sequence (P42336 whole entry): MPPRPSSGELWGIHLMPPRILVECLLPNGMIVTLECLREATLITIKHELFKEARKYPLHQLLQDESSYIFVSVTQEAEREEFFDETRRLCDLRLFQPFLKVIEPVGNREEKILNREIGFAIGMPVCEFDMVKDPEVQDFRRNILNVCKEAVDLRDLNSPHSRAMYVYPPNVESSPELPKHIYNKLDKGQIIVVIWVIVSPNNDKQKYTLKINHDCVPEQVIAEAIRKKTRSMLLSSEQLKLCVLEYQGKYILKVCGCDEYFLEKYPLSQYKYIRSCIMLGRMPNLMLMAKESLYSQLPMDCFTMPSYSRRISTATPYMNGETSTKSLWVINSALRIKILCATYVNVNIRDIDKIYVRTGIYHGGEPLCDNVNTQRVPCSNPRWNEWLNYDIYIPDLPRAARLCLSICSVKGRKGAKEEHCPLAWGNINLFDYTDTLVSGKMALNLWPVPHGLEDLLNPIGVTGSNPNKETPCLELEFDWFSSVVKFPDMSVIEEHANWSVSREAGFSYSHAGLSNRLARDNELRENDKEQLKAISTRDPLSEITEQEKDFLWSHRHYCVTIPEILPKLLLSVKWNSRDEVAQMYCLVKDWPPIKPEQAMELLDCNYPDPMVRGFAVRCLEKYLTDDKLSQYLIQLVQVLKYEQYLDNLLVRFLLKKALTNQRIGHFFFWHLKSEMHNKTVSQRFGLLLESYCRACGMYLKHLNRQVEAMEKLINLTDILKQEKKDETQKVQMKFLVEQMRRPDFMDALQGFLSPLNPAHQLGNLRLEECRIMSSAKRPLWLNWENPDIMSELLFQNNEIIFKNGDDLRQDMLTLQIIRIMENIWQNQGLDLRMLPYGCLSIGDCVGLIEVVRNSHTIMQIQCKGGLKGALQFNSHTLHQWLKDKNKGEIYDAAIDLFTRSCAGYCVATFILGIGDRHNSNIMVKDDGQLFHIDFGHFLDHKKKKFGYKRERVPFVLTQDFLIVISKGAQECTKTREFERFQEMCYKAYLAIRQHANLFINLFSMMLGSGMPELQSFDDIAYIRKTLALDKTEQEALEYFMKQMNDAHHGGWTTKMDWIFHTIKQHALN
T1 sequence (P27986 whole entry partner): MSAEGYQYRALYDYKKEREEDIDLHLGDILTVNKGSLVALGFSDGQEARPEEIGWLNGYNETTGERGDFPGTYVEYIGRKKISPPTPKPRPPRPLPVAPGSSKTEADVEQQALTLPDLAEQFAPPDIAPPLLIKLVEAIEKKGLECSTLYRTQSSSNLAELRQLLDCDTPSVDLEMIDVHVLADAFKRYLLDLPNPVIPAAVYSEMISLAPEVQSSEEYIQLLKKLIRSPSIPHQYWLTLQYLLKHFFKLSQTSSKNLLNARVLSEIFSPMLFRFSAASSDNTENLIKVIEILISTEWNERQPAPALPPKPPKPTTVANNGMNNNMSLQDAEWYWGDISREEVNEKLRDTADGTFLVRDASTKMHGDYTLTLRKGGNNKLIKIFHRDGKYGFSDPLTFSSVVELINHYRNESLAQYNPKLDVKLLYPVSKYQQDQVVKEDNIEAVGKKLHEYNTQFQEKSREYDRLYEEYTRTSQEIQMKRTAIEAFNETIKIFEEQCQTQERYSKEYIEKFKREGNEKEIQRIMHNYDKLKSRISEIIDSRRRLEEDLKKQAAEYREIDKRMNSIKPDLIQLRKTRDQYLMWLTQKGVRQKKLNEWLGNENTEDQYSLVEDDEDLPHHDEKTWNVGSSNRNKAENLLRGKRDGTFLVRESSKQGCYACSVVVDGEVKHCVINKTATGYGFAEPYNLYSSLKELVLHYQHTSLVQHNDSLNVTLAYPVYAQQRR

By inhibition is commonly meant the drop in the measured response relative to a control, in per cent. What is called IC50 is the point on the concentration scale where inhibition reaches its midpoint. `Cc1cccc(S(=O)(=O)n2c(=O)n(-c3ccc(C(C)(C)C#N)cc3)c3c4cc(Br)ccc4ncc32)c1` [Example 3, 2-(4-(8-Bromo-2-oxo-3-(m-tolylsulfonyl)-2,3-dihydro-1H-imidazo[4,5-c]quinolin-1-yl)phenyl)-2-methylpropanenitrile]: the inhibition at 0.1 µM against PI3Kα kinase was in the range of 10 to 50%. Further, the IC50 was 1 to 3 µM in the assay on PANC 1; 1 to 3 µM in the assay with OVCAR 3; at most 1 µM in the assay with A2780; 1 to 3 µM with A549; 1 to 10 µM in the assay on IL-6; at most 1 µM in the assay on PC3. Moreover, in the assay on H460, the IC50 is at most 1 µM.

As for `C/C=C/C(=O)n1c(=O)n(-c2ccc(C(C)(C)C#N)cc2)c2c3cc(Br)ccc3ncc21` [Example 27, (E)-2-(4-(8-Bromo-3-but-2-enoyl-2-oxo-2,3-dihydro-1H-imidazo[4,5-c]quinolin-1-yl)phenyl)-2-methylpropanenitrile], the inhibition at 1 µM against PI3Kα kinase fell in the range of 10 to 50%. Also, the 50% inhibitory concentration (IC50) in the assay on PANC 1 was at most 1 µM; in the assay on TNF-α, at most 1 µM; with OVCAR 3, at most 1 µM; in the assay on A2780, over 3 µM; in the assay with A549, at most 1 µM; in the assay on IL-6 it was at most 1 µM. Further, the IC50 in the assay with PC3 and in the assay with H460 was at most 1 µM throughout.

For `CC(C)(C#N)c1ccc(-n2c(=O)n(C(=O)c3ccccc3)c3cnc4ccc(Br)cc4c32)cc1` [Example 30, 2-(4-(3-Benzoyl-8-bromo-2-oxo-2,3-dihydro-1H-imidazo[4,5-c]quinolin-1-yl)phenyl)-2-methylpropanenitrile], the inhibition at 0.1 µM against PI3Kα kinase was over 50%. The IC50 in the assay on PANC 1 was 1 to 3 µM; with TNF-α, at most 1 µM; in the assay with OVCAR 3 it was at most 1 µM; with A2780 it was at most 1 µM; with A549 it was 1 to 3 µM; in the assay with IL-6, at most 1 µM. Also, the IC50 with PC3 is 1 to 3 µM; in the assay on H460 it was at most 1 µM.

The molecule `CC(C)(C#N)c1ccc(-n2c(=O)n(C(=O)c3ccccc3)c3cnc4ccc(Cl)cc4c32)cc1` [Example 37, 2-(4-(3-Benzoyl-8-chloro-2-oxo-2,3-dihydro-1H-imidazo[4,5-c]quinolin-1-yl)phenyl)-2-methylpropanenitrile] had an inhibition at 0.1 µM against PI3Kα kinase of 10 to 50%. Further, the half-inhibitory concentration (IC50) in the assay on TNF-α is at most 1 µM; in the assay on OVCAR 3, 1 to 3 µM; with A549, 1 to 3 µM; in the assay on IL-6 it was at most 1 µM; in the assay with PC3, 1 to 3 µM; in the assay with H460, 1 to 3 µM.

In the case of `C/C=C/C(=O)n1c(=O)n(-c2ccc(C(C)(C)C#N)cc2)c2c3cc(Cl)ccc3ncc21` [Example 38, (E)-2-(4-(3-But-2-enoyl-8-chloro-2-oxo-2,3-dihydro-1H-imidazo[4,5-c]quinolin-1-yl)phenyl)-2-methylpropanenitrile], on PI3Kα kinase, the inhibition at 1 µM lay within 10 to 50%. Moreover, the IC50 in the assay on PANC 1 is at most 1 µM; in the assay with TNF-α, at most 1 µM; in the assay with OVCAR 3 it was at most 1 µM; with A2780 it was over 3 µM; in the assay with A549, at most 1 µM; in the assay with IL-6, at most 1 µM. The IC50 in the assay on PC3 and with H460 was at most 1 µM in each case.

The record behind these values is patent US8637670B2, “Imidazo [4,5-C]quinoline derivatives and their use in the treatment of tumors and/or inflammation” (Piramal Enterprises Limited, priority 2009, dated 2014).
